The text below walks through data of patent US12390426B1, “Use of adamantane compositions and methods of reducing fibrotic tissue” (Ventoux Biosciences, Inc., priority 2024, dated 2025).

In data set [1] the test system is Bleomycin-Induced Dermal Fibrosis. Kind of data set: Bleomycin-induced dermal fibrosis animal model. The settings on record: 15 mg/kg intraperitoneal once daily days 0-27; bleomycin 20 μg s.c. daily; stated in words only, figure values not given. It counts as in vivo, C57Bl/6 Mice. An excerpt:
Animal Model Designed to Determine Efficacy of Memantine for the Treatment of Bleomycin-Induced Dermal Fibrosis
Forty-two normal male C57Bl/6 Mice were obtained from Charles River Laboratories. Mice age at the start of the study were from 6-8 weeks old. Study subjects were allocated as follows: 1 group of 6 mice and 3 groups of 12 mice each. Animals were not replaced during the study.
(§1) Bleomycin from Henry Schein (Cat #: 8700001) was obtained as a lyophilized powder. Unformulated Bleomycin was stored at 4° C. Formulated Bleomycin was prepared by mixing the lyophilized Bleomycin powder with saline to obtain a 0.4 mg/ml solution. Unused unformulated Bleomycin was retained. The prepared Bleomycin solution was aliquoted into 50 μL, 0.4 mg/ml Bleomycin parts and stored at −80° C. Bleomycin was prepared once and daily aliquots were frozen. Frozen aliquots were thawed daily for administration. […] Bleomycin was administered once daily on days 0-27 at 20 μg per subcutaneous injection. Unused formulated Bleomycin was disposed.
Memantine HCl from Selleckchem (Cat #: S2043) was obtained. Unformulated Memantine HCl was stored at −20° C. […]
Animals were dosed with test articles, administered at least 60 minutes prior to Bleomycin or saline injections. All animals were weighed and evaluated daily. […]

For data set [2], the system named is Alzheimer's disease. The settings on record: cited from earlier work.
For data set [3], the system named is long term potentiation. The conditions noted are these: animal models; cited from earlier work.
Data set [4] can be described thus: Stability of the formulated dosing solutions. The settings on record: 0.4 mg/ml in saline; room temperature. It counts as physicochemical. The method, then:
as §1
Memantine HCl from Selleckchem (Cat #: S2043) was obtained. Unformulated Memantine HCl was stored at −20° C. Memantine was formulated daily by the following procedure: dissolve memantine in a 50/50 mixture of Kolliphor® EL (Sigma, Cat #: C5135)/ethanol for a 4× concentration of 12 mg/ml. Once dissolved, 3 parts MilliQ water is added for a final concentration of 3 mg/ml for dosing (12.5% Kolliphor® EL, 12.5% ethanol, 75% water). Unused unformulated Memantine was disposed. Memantine was formulated daily and administered by intraperitoneal injection once daily on days 0-27 at 15 mg/kg; 0.1 mL/20 g (5 mL/kg). […] Unused formulated Memantine was disposed.

Where a name gives a salt, the structure may show the parent alone.

On to `CC12CC3CC(C)(C1)CC(N)(C3)C2` [Memantine, Memantine HCl], for which the “efficacy at treating fibromatosis conditions” value in data set [1] is “Effective at Treating Fibromatosis Conditions”. In data set [2] (three randomized placebo-controlled trials, Alzheimer's disease), the “cognitive, functional and global endpoints” value is “significant improvements”. Besides, in data set [2] (used in Germany for neurological syndromes and cognitive deficits since 1982), the tolerability result is reported as “good tolerability”. Besides, in data set [3], the “duration of long term potentiation in vivo” value is “prolong the duration of long term potentiation in vivo”; the learning and memory result is “improve learning and memory”.
Consider Bleomycin, for which, in data set [4], the “stability of formulated Bleomycin” value was “stable for a few hours at room temperature”.
